Results published in ChEMBL document CHEMBL3734679, “Discovery of Azaindole Ureas as a Novel Class of Bacterial Gyrase B Inhibitors” (J Med Chem, 2015).
Values after ≈ are worked out from the molar mass of the structure shown.

Tests used:
DNA gyrase subunit B = DNA gyrase subunit B (Staphylococcus aureus, UniProt P0A0K8); experiment: Inhibition of Staphylococcus aureus DNA GyraseB ATPase activity using linear pBR322 DNA as substrate incubated for 30 mins by fluorescence polarization analysis
Staphylococcus aureus [1] = experiment: Antibacterial activity against ciprofloxacin-resistant Staphylococcus aureus 1721 after 18 to 20 hrs by broth microdilution assay; format: functional
Enterococcus faecalis = experiment: Antibacterial activity against Enterococcus faecalis after 18 to 20 hrs by broth microdilution assay; format: functional
Staphylococcus aureus [2] = experiment: Antibacterial activity against methicillin-susceptible Staphylococcus aureus 42 after 18 to 20 hrs by broth microdilution assay; format: functional
Enterococcus faecium = experiment: Antibacterial activity against Enterococcus faecium after 18 to 20 hrs by broth microdilution assay; format: functional
Staphylococcus aureus [3] = experiment: Antibacterial activity against methicillin-resistant Staphylococcus aureus 1118 after 18 to 20 hrs by broth microdilution assay; format: functional
Streptococcus pneumoniae = experiment: Antibacterial activity against Streptococcus pneumoniae after 18 to 20 hrs by broth microdilution assay; format: functional

DNA gyrase subunit B, sequence (P0A0K8 whole entry): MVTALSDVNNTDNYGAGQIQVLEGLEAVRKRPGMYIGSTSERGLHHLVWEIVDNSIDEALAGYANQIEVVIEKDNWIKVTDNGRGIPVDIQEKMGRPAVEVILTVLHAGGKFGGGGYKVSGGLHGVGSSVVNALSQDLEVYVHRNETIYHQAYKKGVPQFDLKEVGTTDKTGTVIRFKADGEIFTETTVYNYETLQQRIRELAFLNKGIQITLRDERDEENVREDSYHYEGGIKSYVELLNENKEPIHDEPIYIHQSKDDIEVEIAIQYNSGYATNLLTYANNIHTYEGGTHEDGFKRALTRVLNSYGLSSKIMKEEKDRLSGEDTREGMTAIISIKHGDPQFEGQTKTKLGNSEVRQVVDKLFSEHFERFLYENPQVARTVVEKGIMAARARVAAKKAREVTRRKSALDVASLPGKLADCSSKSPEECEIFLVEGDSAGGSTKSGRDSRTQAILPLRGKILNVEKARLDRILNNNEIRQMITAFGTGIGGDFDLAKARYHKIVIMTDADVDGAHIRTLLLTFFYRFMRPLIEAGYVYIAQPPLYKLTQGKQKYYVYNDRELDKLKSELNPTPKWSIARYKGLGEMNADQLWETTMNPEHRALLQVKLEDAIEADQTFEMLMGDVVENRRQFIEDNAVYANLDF

| SMILES | IC50 (DNA gyrase subunit B) | MIC (Staphylococcus aureus [1]) | MIC (Enterococcus faecalis) | MIC (Staphylococcus aureus [2]) | MIC (Enterococcus faecium) | MIC (Staphylococcus aureus [3]) | MIC (Streptococcus pneumoniae) |
| --- | --- | --- | --- | --- | --- | --- | --- |
| CCNC(=O)Nc1cn(CC(O)CO)c2cc(-c3cccnc3)cnc12 (configuration not stated) | 1220 nM | – | – | – | – | – | – |
| CCNC(=O)Nc1c[nH]c2cc(-c3cccnc3)cnc12 | 6500 nM | > 32 µg/mL | > 32 µg/mL | > 32 µg/mL | > 32 µg/mL | > 32 µg/mL | > 32 µg/mL |
| CCNC(=O)Nc1cn(CCOC)c2cc(-c3cccnc3)cnc12 | 2400 nM | – | – | – | – | – | – |
| CCNC(=O)Nc1cn(Cc2ccccc2)c2cc(-c3cccnc3)cnc12 | 3200 nM | – | – | – | – | – | – |
| CCNC(=O)Nc1cn(-c2ncc(F)cn2)c2cc(-c3cccnc3)cnc12 | 127 nM | > 32 µg/mL | 32 µg/mL (≈ 84.8 µM) | 32 µg/mL (≈ 84.8 µM) | 32 µg/mL (≈ 84.8 µM) | 32 µg/mL (≈ 84.8 µM) | 32 µg/mL (≈ 84.8 µM) |
| CCNC(=O)Nc1cn(-c2nccc(CCCO)n2)c2cc(-c3cccnc3)cnc12 | 42 nM | 32 µg/mL (≈ 76.7 µM) | 0.5 µg/mL (≈ 1.2 µM) | 32 µg/mL (≈ 76.7 µM) | 4 µg/mL (≈ 9.58 µM) | 32 µg/mL (≈ 76.7 µM) | 4 µg/mL (≈ 9.58 µM) |
| CCNC(=O)Nc1cn(-c2ncc(CC)cn2)c2cc(-c3ccn(C)c(=O)c3)cnc12 | 71 nM | 1 µg/mL (≈ 2.4 µM) | – | 1 µg/mL (≈ 2.4 µM) | 0.25 µg/mL (≈ 0.599 µM) | 1 µg/mL (≈ 2.4 µM) | 0.25 µg/mL (≈ 0.599 µM) |
| CCNC(=O)Nc1nc(/C=C/c2cccnc2)c(-c2ccc[nH]2)s1 | 5800 nM | – | – | – | – | – | – |
| CCNC(=O)Nc1cn(C)c2cc(-c3cccnc3)cnc12 | 1800 nM | – | – | – | – | – | – |
| CCNC(=O)Nc1cn(C2CCN(C)CC2)c2cc(-c3cccnc3)cnc12 | 6420 nM | – | – | – | – | – | – |
| CCNC(=O)Nc1cn(C2CCN(C)C2=O)c2cc(-c3cccnc3)cnc12 (configuration not stated) | 5290 nM | – | – | – | – | – | – |
| CCNC(=O)Nc1cn(-c2ncc(Cl)cn2)c2cc(-c3cccnc3)cnc12 | 92 nM | 4 µg/mL (≈ 10.2 µM) | 0.5 µg/mL (≈ 1.27 µM) | 2 µg/mL (≈ 5.08 µM) | 2 µg/mL (≈ 5.08 µM) | 4 µg/mL (≈ 10.2 µM) | 2 µg/mL (≈ 5.08 µM) |
| CCNC(=O)Nc1cn(-c2ncc(C(F)(F)F)cn2)c2cc(-c3cccnc3)cnc12 | > 100000 nM | > 32 µg/mL | > 32 µg/mL | > 32 µg/mL | > 32 µg/mL | > 32 µg/mL | > 32 µg/mL |
| CCNC(=O)Nc1cn(C2C=CCCC2)c2cc(-c3cccnc3)cnc12 (configuration not stated) | 240 nM | – | – | – | – | – | – |
| CCNC(=O)Nc1cn(-c2ncc(OC)cn2)c2cc(-c3cccnc3)cnc12 | 143 nM | 8 µg/mL (≈ 20.5 µM) | 1 µg/mL (≈ 2.57 µM) | 4 µg/mL (≈ 10.3 µM) | 8 µg/mL (≈ 20.5 µM) | 8 µg/mL (≈ 20.5 µM) | 4 µg/mL (≈ 10.3 µM) |
| CCNC(=O)Nc1nc(CO)c(-c2ccc[nH]2)s1 | 2500 nM | – | – | 128 µg/mL (≈ 481 µM) | – | – | 16 µg/mL (≈ 60.1 µM) |
| CCNC(=O)Nc1cn(-c2ncc(Cl)cn2)c2cc(-c3cccnc3F)cnc12 | 6060 nM | > 32 µg/mL | > 32 µg/mL | > 32 µg/mL | > 32 µg/mL | > 32 µg/mL | > 32 µg/mL |
| CCNC(=O)Nc1cn(-c2ncc(C#N)cn2)c2cc(-c3cccnc3)cnc12 | 18 nM | > 32 µg/mL | > 32 µg/mL | > 32 µg/mL | > 32 µg/mL | > 32 µg/mL | > 32 µg/mL |
| CCNC(=O)Nc1cn(-c2nccc(C)n2)c2cc(-c3cccnc3)cnc12 | 140 nM | > 32 µg/mL | 1 µg/mL (≈ 2.68 µM) | > 32 µg/mL | 2 µg/mL (≈ 5.36 µM) | > 32 µg/mL | 4 µg/mL (≈ 10.7 µM) |
| CCNC(=O)Nc1cn(-c2ncccc2C)c2cc(-c3cccnc3)cnc12 | 1900 nM | > 32 µg/mL | > 32 µg/mL | > 32 µg/mL | > 32 µg/mL | > 32 µg/mL | > 32 µg/mL |

| SMILES | IC50 (DNA gyrase subunit B) | MIC (Staphylococcus aureus [1]) | MIC (Enterococcus faecalis) | MIC (Staphylococcus aureus [2]) | MIC (Enterococcus faecium) | MIC (Staphylococcus aureus [3]) | MIC (Streptococcus pneumoniae) |
| --- | --- | --- | --- | --- | --- | --- | --- |
| C=CC(=O)n1cc(NC(=O)NCC)c2ncc(-c3cccnc3)cc21 | 280 nM | – | – | – | – | – | – |
| CCNC(=O)Nc1cn(-c2ncc(Br)cn2)c2cc(-c3ccn(C)c(=O)c3)cnc12 | 94 nM | 1 µg/mL (≈ 2.14 µM) | – | 1 µg/mL (≈ 2.14 µM) | 1 µg/mL (≈ 2.14 µM) | 1 µg/mL (≈ 2.14 µM) | 1 µg/mL (≈ 2.14 µM) |
| CCNC(=O)Nc1cn(-c2ncc(Cl)cn2)c2cc(-c3ccn(C)c(=O)c3)cnc12 | 262 nM | 2 µg/mL (≈ 4.72 µM) | – | 1 µg/mL (≈ 2.36 µM) | 2 µg/mL (≈ 4.72 µM) | 1 µg/mL (≈ 2.36 µM) | 1 µg/mL (≈ 2.36 µM) |
| CCNC(=O)Nc1cn(C2CCCCC2)c2cc(-c3cccnc3)cnc12 | 350 nM | – | – | – | – | – | – |
| CCNC(=O)Nc1cn(-c2ncccn2)c2cc(-c3ccn(C)c(=O)c3)cnc12 | 12 nM | 4 µg/mL (≈ 10.3 µM) | – | 2 µg/mL (≈ 5.14 µM) | 4 µg/mL (≈ 10.3 µM) | 2 µg/mL (≈ 5.14 µM) | 2 µg/mL (≈ 5.14 µM) |
| CCNC(=O)Nc1cn(-c2ncc(Cl)cn2)c2cc(-c3cnc(C#N)nc3)cnc12 | 25 nM | > 32 µg/mL | > 32 µg/mL | > 32 µg/mL | > 32 µg/mL | > 32 µg/mL | > 32 µg/mL |
| CCNC(=O)Nc1cn(-c2ncccn2)c2cc(-c3cccnc3)cnc12 | < 79 nM | 16 µg/mL (≈ 44.5 µM) | 2 µg/mL (≈ 5.56 µM) | 8 µg/mL (≈ 22.3 µM) | 8 µg/mL (≈ 22.3 µM) | 8 µg/mL (≈ 22.3 µM) | 4 µg/mL (≈ 11.1 µM) |
| CCNC(=O)Nc1cn(-c2ncc(C)c(CCC(=O)O)n2)c2cc(-c3cccnc3)cnc12 | 48 nM | > 32 µg/mL | – | > 32 µg/mL | > 32 µg/mL | > 32 µg/mL | 1 µg/mL (≈ 2.24 µM) |
| CCNC(=O)Nc1cn(-c2nccc(CCO)n2)c2cc(-c3cccnc3)cnc12 | 9 nM | 32 µg/mL (≈ 79.3 µM) | – | 32 µg/mL (≈ 79.3 µM) | 16 µg/mL (≈ 39.7 µM) | 32 µg/mL (≈ 79.3 µM) | 8 µg/mL (≈ 19.8 µM) |
| CCNC(=O)Nc1cn(-c2ncc(C)cn2)c2cc(-c3ccn(C)c(=O)c3)cnc12 | 13 nM | > 32 µg/mL | 0.5 µg/mL (≈ 1.24 µM) | > 32 µg/mL | > 32 µg/mL | > 32 µg/mL | 4 µg/mL (≈ 9.91 µM) |
| CCNC(=O)Nc1cn(-c2ncccn2)c2cc(-n3cnc(C(=O)NC4CC4)c3)cnc12 | 10 nM | 4 µg/mL (≈ 9.27 µM) | – | 4 µg/mL (≈ 9.27 µM) | 8 µg/mL (≈ 18.5 µM) | 4 µg/mL (≈ 9.27 µM) | 2 µg/mL (≈ 4.64 µM) |
| CCNC(=O)Nc1cn(-c2ncc(C)c(CCCC(=O)O)n2)c2cc(-c3cccnc3)cnc12 | 15 nM | 8 µg/mL (≈ 17.4 µM) | – | 8 µg/mL (≈ 17.4 µM) | 8 µg/mL (≈ 17.4 µM) | 8 µg/mL (≈ 17.4 µM) | 0.5 µg/mL (≈ 1.09 µM) |
| CCNC(=O)Nc1cn(-c2ncc(Br)cn2)c2cc(-c3ccn(CCO)c(=O)c3)cnc12 | 8 nM | 8 µg/mL (≈ 16.1 µM) | – | 8 µg/mL (≈ 16.1 µM) | 8 µg/mL (≈ 16.1 µM) | 8 µg/mL (≈ 16.1 µM) | 8 µg/mL (≈ 16.1 µM) |
| CCNC(=O)Nc1cn(-c2ncc(CC)cn2)c2cc(-c3cccnc3)cnc12 | 46 nM | 16 µg/mL (≈ 41.3 µM) | 8 µg/mL (≈ 20.6 µM) | 16 µg/mL (≈ 41.3 µM) | 16 µg/mL (≈ 41.3 µM) | 16 µg/mL (≈ 41.3 µM) | 16 µg/mL (≈ 41.3 µM) |
| CCNC(=O)Nc1cn(-c2ncc(C)cn2)c2cc(-c3cccnc3)cnc12 | 64 nM | 4 µg/mL (≈ 10.7 µM) | 1 µg/mL (≈ 2.68 µM) | 4 µg/mL (≈ 10.7 µM) | 4 µg/mL (≈ 10.7 µM) | 4 µg/mL (≈ 10.7 µM) | 4 µg/mL (≈ 10.7 µM) |
| CCNC(=O)Nc1cn(-c2ccccn2)c2cc(-c3cccnc3)cnc12 | 140 nM | – | 8 µg/mL (≈ 22.3 µM) | 16 µg/mL (≈ 44.6 µM) | 8 µg/mL (≈ 22.3 µM) | 16 µg/mL (≈ 44.6 µM) | 8 µg/mL (≈ 22.3 µM) |
| CCNC(=O)Nc1cn(-c2ncc(Br)cn2)c2cc(-c3cccnc3)cnc12 | 128 nM | 2 µg/mL (≈ 4.56 µM) | 0.25 µg/mL (≈ 0.57 µM) | 1 µg/mL (≈ 2.28 µM) | 2 µg/mL (≈ 4.56 µM) | 2 µg/mL (≈ 4.56 µM) | 1 µg/mL (≈ 2.28 µM) |
| CCNC(=O)Nc1cn(C(=O)c2ccccn2)c2cc(-c3cccnc3)cnc12 | 1130 nM | – | – | – | – | – | – |
| C=CCn1cc(NC(=O)NCC)c2ncc(-c3cccnc3)cc21 | 430 nM | – | – | – | – | – | – |
